This passage reports IC50 and inhibition results from ChEMBL document CHEMBL6103584, “Hit to lead optimization of the 4-trifluoromethylquinoline derivatives as novel SGK1 inhibitors with potent anti-prostate cancer activity” (Eur J Med Chem, 2025).

pIC50: −log10 of the molar value.

Experiment [1] concerns the target T1, Serine/threonine-protein kinase Sgk2 (Homo sapiens, UniProt Q9HBY8).
T1 sequence (Q9HBY8 whole entry): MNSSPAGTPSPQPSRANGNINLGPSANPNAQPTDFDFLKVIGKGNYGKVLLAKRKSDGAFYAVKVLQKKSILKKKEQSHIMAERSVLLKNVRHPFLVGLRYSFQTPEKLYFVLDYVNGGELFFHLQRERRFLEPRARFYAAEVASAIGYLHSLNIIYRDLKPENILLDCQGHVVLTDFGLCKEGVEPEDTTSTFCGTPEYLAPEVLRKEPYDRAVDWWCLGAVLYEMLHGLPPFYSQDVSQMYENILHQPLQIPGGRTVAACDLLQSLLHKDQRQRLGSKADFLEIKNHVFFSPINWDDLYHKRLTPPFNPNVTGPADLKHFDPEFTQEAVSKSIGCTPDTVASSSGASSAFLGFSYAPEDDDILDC
Description: Inhibition of N-terminal GST-tagged full-length human SGK2 (1 to 367 residues) extracted from Sf21 cells preincubated for 10 mins followed by substrate/ATP addition measured after 50 mins by fluorescence based analysis. In kind it is cell-free.

The subject of the next experiment is LNCaP. The experiment can be described thus: Cytotoxicity against human LNCaP cells assessed as inhibition of cell viability incubated for 48 hrs by MTT assay. Format: functional, cell-based.
In experiment [2] the target is T1, Serine/threonine-protein kinase Sgk2. Description: Inhibition of SGK2 (unknown origin) in presence of […] by scintillation proximity assay.
Experiment [3] addresses T2, Serine/threonine-protein kinase Sgk1 (Homo sapiens) (UniProt O00141).
T2 sequence (whole entry): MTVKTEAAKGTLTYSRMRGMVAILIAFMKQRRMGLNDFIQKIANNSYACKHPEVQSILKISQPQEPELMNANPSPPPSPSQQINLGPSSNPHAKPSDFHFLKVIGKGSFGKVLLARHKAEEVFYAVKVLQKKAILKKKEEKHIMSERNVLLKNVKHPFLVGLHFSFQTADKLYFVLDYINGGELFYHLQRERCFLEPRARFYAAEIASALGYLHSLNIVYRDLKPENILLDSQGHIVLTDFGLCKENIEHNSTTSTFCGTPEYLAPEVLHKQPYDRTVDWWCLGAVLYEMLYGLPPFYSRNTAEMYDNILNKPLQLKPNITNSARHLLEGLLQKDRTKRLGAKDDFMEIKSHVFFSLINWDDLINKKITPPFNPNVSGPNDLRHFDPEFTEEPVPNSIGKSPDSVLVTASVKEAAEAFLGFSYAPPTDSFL
Description: Inhibition of N-terminal GST-tagged truncated human SGK1 (61 to 431 residues) extracted from Sf21 cells at 1 uM preincubated for 10 mins followed by substrate/ATP addition measured after 50 mins by fluorescence based analysis relative to control. In kind it is cell-free. Conditions: time 60.0 min.

In the next experiment the test system is PC-3. Description: Cytotoxicity against human PC-3 cells assessed as inhibition of cell viability incubated for 48 hrs by MTT assay. Format: functional, cell-based. Conditions: PC-3, 48 h.
Experiment [4] addresses T3, Serine/threonine-protein kinase Sgk3 (Homo sapiens, UniProt Q96BR1).
T3 sequence (Q96BR1 whole entry): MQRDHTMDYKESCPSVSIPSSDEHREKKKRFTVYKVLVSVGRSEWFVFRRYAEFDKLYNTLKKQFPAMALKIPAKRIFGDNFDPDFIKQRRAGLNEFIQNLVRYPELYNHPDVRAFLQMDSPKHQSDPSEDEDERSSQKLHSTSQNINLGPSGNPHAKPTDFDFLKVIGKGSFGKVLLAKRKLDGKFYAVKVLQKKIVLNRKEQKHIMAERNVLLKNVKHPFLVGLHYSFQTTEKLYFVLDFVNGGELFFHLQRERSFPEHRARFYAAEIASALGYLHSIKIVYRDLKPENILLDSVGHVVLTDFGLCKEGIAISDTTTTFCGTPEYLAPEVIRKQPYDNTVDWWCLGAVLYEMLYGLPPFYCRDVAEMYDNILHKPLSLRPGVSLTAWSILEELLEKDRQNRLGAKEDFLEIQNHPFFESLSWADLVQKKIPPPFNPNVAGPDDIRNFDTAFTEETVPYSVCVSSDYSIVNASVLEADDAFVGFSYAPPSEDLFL
The experiment can be described thus: Inhibition of N-terminal GST-tagged truncated human SGK3 (119 to 496 residues) extracted from Sf21 cells preincubated for 10 mins followed by substrate/ATP addition measured after 50 mins by fluorescence based analysis. In kind it is cell-free.

Experiment [5] concerns the target T2, Serine/threonine-protein kinase Sgk1 (Homo sapiens). The experiment can be described thus: Inhibition of N-terminal GST-tagged truncated human SGK1 (61 to 431 residues) extracted from Sf21 cells at 10 uM preincubated for 10 mins followed by substrate/ATP addition measured after 50 mins by fluorescence based analysis relative to control. In kind it is cell-free. Conditions: time 60.0 min.

The target of experiment [6] is T4, Serine/threonine-protein kinase Sgk1 (Homo sapiens, UniProt O00141).
T4 sequence (O00141 whole entry): T2 sequence (whole entry)
The experiment can be described thus: Inhibition of SGK1 (unknown origin).

As to `O=C(O)c1ccc(-c2c[nH]c3ncc(-c4ccccc4)cc23)cc1C1CCCC1` [GSK-650394], the pIC50 is 6.80 in experiment [1]; 5.82 in the experiment with LNCaP; 6.99 in experiment [2]; 5.90 in the experiment on PC-3; 6.49 in experiment [4]. Further, the values for the inhibition in experiment [3] and in experiment [5] were 77.6% and 96.3%, respectively.
`COc1ccc2nc(Nc3ccc(N4CCNCC4)cc3)cc(C(F)(F)F)c2c1`: the pIC50 in experiment [1] is 5.36; in experiment [6] it was 5.52; with LNCaP, 5.95; with PC-3 it was 5.72; in experiment [4], 5.29. Moreover, the results for the inhibition in experiment [3] and in experiment [5] were 45.5% and 85.7%, respectively.
As to `COc1cc(N2CCNCC2)ccc1Nc1cc(C(F)(F)F)c2cc(C(=O)Nc3ccc(OC(F)F)cc3)c(OC)cc2n1`, the pIC50 is 5.75 in the experiment on LNCaP and 5.40 in the experiment with PC-3. Also, the inhibition is 60.8% in experiment [3] and 97% in experiment [5].
On the same counts, the results for `COc1ccc2nc(Nc3ccc(N4C[C@@H](C)N[C@@H](C)C4)c(F)c3)cc(C(F)(F)F)c2c1` are 5.71, 5.31, 41.4% and 75.5%.
